Source: PubChem BioAssay (NCI)
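Grown in 96-well plates, cells were treated for 48 hours with each compound at five concentrations. Insufficient inhibition: endpoint recorded as highest concentration tested. Here, GI50 denotes the concentration required for 50% inhibition of growth. The concentration for full growth arrest is given as TGI.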

How the values were obtained:
Experiment in all cases: NCI-60 cell line screen, 48 h
OVCAR-3 ovarian = test system: OVCAR-3 ovarian
MCF7 breast = test system: MCF7 breast
NCI-H460 lung = test system: NCI-H460 lung
NCI/ADR-RES ovarian = test system: NCI/ADR-RES ovarian
HCT-116 colon = test system: HCT-116 colon
RXF 393 renal = test system: RXF 393 renal
SK-MEL-2 melanoma = test system: SK-MEL-2 melanoma
SK-OV-3 ovarian = test system: SK-OV-3 ovarian
LOX IMVI melanoma = test system: LOX IMVI melanoma
SNB-75 CNS = test system: SNB-75 CNS
HOP-62 NSCLC = test system: HOP-62 NSCLC
MOLT-4 leukemia = test system: MOLT-4 leukemia
COLO 205 colon = test system: COLO 205 colon
UO-31 renal = test system: UO-31 renal
MDA-MB-435 = test system: MDA-MB-435
SK-MEL-5 melanoma = test system: SK-MEL-5 melanoma
OVCAR-4 ovarian = test system: OVCAR-4 ovarian
OVCAR-8 ovarian = test system: OVCAR-8 ovarian
SW-620 colon = test system: SW-620 colon
TK-10 renal = test system: TK-10 renal
PC-3 prostate = test system: PC-3 prostate
ACHN renal = test system: ACHN renal
T-47D breast = test system: T-47D breast
SF-539 CNS = test system: SF-539 CNS
DU-145 prostate = test system: DU-145 prostate
OVCAR-5 ovarian = test system: OVCAR-5 ovarian
HS 578T breast = test system: HS 578T breast
HT29 colon = test system: HT29 colon
MALME-3M melanoma = test system: MALME-3M melanoma
EKVX NSCLC = test system: EKVX NSCLC
A549 NSCLC = test system: A549 NSCLC
NCI-H226 lung = test system: NCI-H226 lung
HCC-2998 colon = test system: HCC-2998 colon
IGROV1 ovarian = test system: IGROV1 ovarian
A498 renal = test system: A498 renal
SN12C renal = test system: SN12C renal
NCI-H522 lung = test system: NCI-H522 lung
UACC-62 melanoma = test system: UACC-62 melanoma
786-0 renal = test system: 786-0 renal
CCRF-CEM leukemia = test system: CCRF-CEM leukemia
HL-60(TB) leukemia = test system: HL-60(TB) leukemia
M14 melanoma = test system: M14 melanoma
HOP-92 NSCLC = test system: HOP-92 NSCLC
CAKI-1 renal = test system: CAKI-1 renal
SK-MEL-28 melanoma = test system: SK-MEL-28 melanoma
BT-549 breast = test system: BT-549 breast
UACC-257 melanoma = test system: UACC-257 melanoma
RPMI-8226 leukemia = test system: RPMI-8226 leukemia
SF-268 CNS = test system: SF-268 CNS
SF-295 CNS = test system: SF-295 CNS
MDA-MB-231 breast = test system: MDA-MB-231 breast
KM12 colon = test system: KM12 colon
SNB-19 CNS = test system: SNB-19 CNS
U251 CNS = test system: U251 CNS
NCI-H23 lung = test system: NCI-H23 lung
HCT-15 colon = test system: HCT-15 colon
SR leukemia = test system: SR leukemia

COc1cc2c3c(n(CCCNC4CCCCC4)c(=O)c2cc1OC)-c1cc2c(cc1C3=O)OCO2
GI50 (OVCAR-3 ovarian): 10.8 µM | TGI (OVCAR-3 ovarian): 33 µM | GI50 (MCF7 breast): 1.2 µM | TGI (MCF7 breast): 2.84 µM | GI50 (NCI-H460 lung): 1.52 µM | TGI (NCI-H460 lung): 3.24 µM | GI50 (NCI/ADR-RES ovarian): 1.78 µM | TGI (NCI/ADR-RES ovarian): 4.45 µM | GI50 (HCT-116 colon): 1.59 µM | TGI (HCT-116 colon): 3.03 µM | GI50 (RXF 393 renal): 9.22 µM | TGI (RXF 393 renal): 37.8 µM | GI50 (SK-MEL-2 melanoma): > 100 µM | TGI (SK-MEL-2 melanoma): > 100 µM | GI50 (SK-OV-3 ovarian): 20.8 µM | TGI (SK-OV-3 ovarian): 51.1 µM | GI50 (LOX IMVI melanoma): 1.43 µM | TGI (LOX IMVI melanoma): 3 µM | GI50 (SNB-75 CNS): 11.9 µM | TGI (SNB-75 CNS): 25.5 µM | GI50 (HOP-62 NSCLC): 15.8 µM | TGI (HOP-62 NSCLC): 43.3 µM | GI50 (MOLT-4 leukemia): 0.354 µM | TGI (MOLT-4 leukemia): 3.93 µM | GI50 (COLO 205 colon): 8 µM | TGI (COLO 205 colon): > 54 µM | GI50 (UO-31 renal): 13.3 µM | TGI (UO-31 renal): 27.3 µM | GI50 (MDA-MB-435): 14.7 µM | TGI (MDA-MB-435): 34.3 µM | GI50 (SK-MEL-5 melanoma): 18.4 µM | TGI (SK-MEL-5 melanoma): 36.3 µM | GI50 (OVCAR-4 ovarian): 10.9 µM | TGI (OVCAR-4 ovarian): 23.9 µM | GI50 (OVCAR-8 ovarian): 18 µM | TGI (OVCAR-8 ovarian): 36.6 µM | GI50 (SW-620 colon): 1.44 µM | TGI (SW-620 colon): 4.18 µM | GI50 (TK-10 renal): 20.9 µM | TGI (TK-10 renal): 36.7 µM | GI50 (PC-3 prostate): 16.8 µM | TGI (PC-3 prostate): 85.6 µM | GI50 (ACHN renal): 8.95 µM | TGI (ACHN renal): 33.5 µM | GI50 (T-47D breast): 20.8 µM | TGI (T-47D breast): 61.4 µM | GI50 (SF-539 CNS): 4.57 µM | TGI (SF-539 CNS): 8.91 µM | GI50 (DU-145 prostate): 1.83 µM | TGI (DU-145 prostate): 3.74 µM | GI50 (OVCAR-5 ovarian): 20.3 µM | TGI (OVCAR-5 ovarian): 48.4 µM | GI50 (HS 578T breast): 49 µM | TGI (HS 578T breast): > 100 µM | GI50 (HT29 colon): 1.82 µM | TGI (HT29 colon): 3.66 µM | GI50 (MALME-3M melanoma): 14.4 µM | TGI (MALME-3M melanoma): 29.1 µM | GI50 (EKVX NSCLC): 14.3 µM | TGI (EKVX NSCLC): > 63.8 µM | GI50 (A549 NSCLC): 5.87 µM | TGI (A549 NSCLC): 18.5 µM | GI50 (NCI-H226 lung): 24.8 µM | TGI (NCI-H226 lung): > 67 µM | GI50 (HCC-2998 colon): 3.69 µM | TGI (HCC-2998 colon): 8.34 µM | GI50 (IGROV1 ovarian): 15.4 µM | TGI (IGROV1 ovarian): > 100 µM | GI50 (A498 renal): 20.8 µM | TGI (A498 renal): 49.1 µM | GI50 (SN12C renal): 18.2 µM | TGI (SN12C renal): > 57.8 µM | GI50 (NCI-H522 lung): 10.8 µM | TGI (NCI-H522 lung): 59.2 µM | GI50 (UACC-62 melanoma): 27 µM | TGI (UACC-62 melanoma): > 66.5 µM | GI50 (786-0 renal): 1.73 µM | TGI (786-0 renal): 3.19 µM | GI50 (CCRF-CEM leukemia): 0.319 µM | TGI (CCRF-CEM leukemia): 13.7 µM | GI50 (HL-60(TB) leukemia): 1.62 µM | TGI (HL-60(TB) leukemia): 4.87 µM | GI50 (M14 melanoma): 18.3 µM | TGI (M14 melanoma): 39.2 µM | GI50 (HOP-92 NSCLC): 15.5 µM | TGI (HOP-92 NSCLC): 42 µM | GI50 (CAKI-1 renal): 7.69 µM | TGI (CAKI-1 renal): 22.9 µM | GI50 (SK-MEL-28 melanoma): 22.7 µM | TGI (SK-MEL-28 melanoma): > 55.7 µM | GI50 (BT-549 breast): 15.2 µM | TGI (BT-549 breast): 31.9 µM | GI50 (UACC-257 melanoma): 18.9 µM | TGI (UACC-257 melanoma): 43 µM | GI50 (RPMI-8226 leukemia): 1.82 µM | TGI (RPMI-8226 leukemia): 6.39 µM | GI50 (SF-268 CNS): 9.87 µM | TGI (SF-268 CNS): > 69 µM | GI50 (SF-295 CNS): 12.1 µM | TGI (SF-295 CNS): > 58.1 µM | GI50 (MDA-MB-231 breast): 2.18 µM | TGI (MDA-MB-231 breast): 5.13 µM | GI50 (KM12 colon): 11.7 µM | TGI (KM12 colon): > 59 µM | GI50 (SNB-19 CNS): 26.2 µM | TGI (SNB-19 CNS): > 76.5 µM | GI50 (U251 CNS): 7.85 µM | TGI (U251 CNS): 51.6 µM | GI50 (NCI-H23 lung): 1.86 µM | TGI (NCI-H23 lung): 4.22 µM | GI50 (HCT-15 colon): 1.62 µM | TGI (HCT-15 colon): 3.21 µM | GI50 (SR leukemia): 0.245 µM | TGI (SR leukemia): 4.17 µM
